Reference: patent US11851391B2, “Antifungal compounds and methods of forming the same” (University of Kentucky Research Foundation, priority 2018, dated 2023)
In brackets after ≈: the same amount, converted by molar mass. Like-named read-outs stand apart in the source and are kept apart here.

Key:
[1] = test system: Aspergillus terreus ATCC MYA-3633 (strain M); assay: MIC determination against filamentous fungi (CLSI M38-A2); format: cell-based; conditions: MIC-0, 48 h at 35° C.
Outline: (§1)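 MIC-0, meaning no visible growth relative to growth control, was scored after 48 h at 35° C, in triplicate. Hemocytometer-counted spores from potato dextrose agar were inoculated at 5×10^5 CFU/mL final. The medium was MOPS-buffered (0.165 M) RPMI 1640 at pH 7.0, following CLSI M38-A2.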

[2] = test system: Aspergillus flavus ATCC MYA-3631 (strain K); assay: as above; format: cell-based; conditions: MIC-0, 48 h at 35° C.
Outline: as §1

[3] = test system: Aspergillus nidulans ATCC 38163 (strain L); assay: as above; format: cell-based; conditions: MIC-0, 48 h at 35° C.
Outline: as §1

[4] = test system: C. albicans ATCC MYA-2876(S) (strain C); assay: MIC determination, in vitro antifungal assay (CLSI M27-A3); format: cell-based, Candida albicans; conditions: MIC-0, 48 h at 35° C.
Outline: (§2)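 Inoculum 2-4×10^3 CFU/mL from overnight YPD culture (OD600 0.12 ≈ 1×10^6 CFU/mL). DMSO <1.25% final.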

[5] = test system: C. albicans ATCC MYA-1003(R) (strain G); assay: as above; format: cell-based, Candida albicans; conditions: MIC-0, 48 h at 35° C.
Outline: as §2

[6] = test system: Candida parapsilosis ATCC 22019 (strain J); assay: as above; format: cell-based; conditions: strain J, MIC-0, 48 h at 35° C.
Outline: (§3)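 Broth microdilution per CLSI M27-A3 with minor modifications, in RPMI 1640 buffered to pH 7.0 with 0.165 M MOPS at 35° C. Overnight YPD cultures were diluted to 2-4×10^3 CFU/mL in RPMI; DMSO kept <1.25%. MIC taken as lowest concentration giving complete inhibition (MIC-0).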

[7] = test system: Candida albicans ATCC 10231(R) (strain A); assay: as above; format: cell-based; conditions: MIC-0 (no visible growth), 48 h at 35° C.
Outline: as §3

[8] = test system: C. albicans ATCC MYA-2310(S) (strain E); assay: as above; format: cell-based, Candida albicans; conditions: MIC-0, 48 h at 35° C.
Outline: as §3

[9] = test system: C. albicans ATCC MYA-1237(R) (strain F); assay: as above; format: cell-based, Candida albicans; conditions: MIC-0, 48 h at 35° C.
Outline: as §3

[10] = test system: C. albicans ATCC 64124(R) (strain B); assay: as above; format: cell-based, Candida albicans; conditions: strain B, MIC-0, 48 h at 35° C.
Outline: as §3

[11] = test system: C. albicans ATCC 90819(R) (strain D); assay: as above; format: cell-based, Candida albicans; conditions: MIC-0, 48 h at 35° C.
Outline: as §3

[12] = Aspergillus terreus, 48 h, read-out: MIC
[13] = Aspergillus flavus, 48 h, read-out: MIC
[14] = Aspergillus nidulans, ATCC38163, 48 h, read-out: MIC
[15] = Candida albicans, 48 h, read-out: MIC
[16] = Lodderomyces parapsilosis, ATCC22019, 48 h, read-out: MIC
[17] = Candida albicans, ATCC10231, 48 h, read-out: MIC
[18] = Candida albicans, ATCC64124, 48 h, read-out: MIC
[19] = Candida albicans, ATCC90819, 48 h, read-out: MIC

| Structure (SMILES) | MIC [1, 12] [µg/mL] | MIC [2, 13] [µg/mL] | MIC [2] [µg/mL] | MIC [3, 14] [µg/mL] | MIC [3] [µg/mL] | MIC [4, 15] [µg/mL] | MIC [5, 15] [µg/mL] | MIC [5] [µg/mL] | MIC [6, 16] [µg/mL] | MIC [7, 17] [µg/mL] | MIC [7] [µg/mL] | MIC [8, 15] [µg/mL] | MIC [9, 15] [µg/mL] | MIC [10, 18] [µg/mL] | MIC [11, 19] [µg/mL] | MIC [4] [µg/mL] | MIC [8] [µg/mL] | MIC [9] [µg/mL] | MIC [10] [µg/mL] | MIC [11] [µg/mL] | also measured |
| --- | --- | --- | --- | --- | --- | --- | --- | --- | --- | --- | --- | --- | --- | --- | --- | --- | --- | --- | --- | --- | --- |
| C(=N\Nc1ccccc1)/c1ccc(-c2cccc(/C=N/Nc3ccccc3)c2)cc1 [Compound 7a] | 7.8 to 15.6 (≈ 20 to 39.9 µM) | 1.95 to 3.9 (≈ 4.99 to 9.99 µM) | 3.9 (≈ 9.99 µM) | 1.95 to 3.9 (≈ 4.99 to 9.99 µM) | 1.95 (≈ 4.99 µM) | 31.3 (≈ 80.2 µM) | 1.95 to 3.9 (≈ 4.99 to 9.99 µM) | 3.9 (≈ 9.99 µM) | > 31.3 | 1.95 to 3.9 (≈ 4.99 to 9.99 µM) | 1.95 (≈ 4.99 µM) | 31.3 (≈ 80.2 µM) | 31.3 (≈ 80.2 µM) | 31.3 (≈ 80.2 µM) | 31.3 (≈ 80.2 µM) |  |  |  |  |  | MIC [1]: 15.6 µg/mL (≈ 39.9 µM) |
| Fc1ccc(N/N=C/c2ccc(-c3cccc(/C=N/Nc4ccc(F)cc4)c3)cc2)cc1 [Compound 17a] | > 31.3 | 15.6 (≈ 36.6 µM) |  | 1.95 to 3.9 (≈ 4.57 to 9.14 µM) | 3.9 (≈ 9.14 µM) | 7.8 (≈ 18.3 µM) | 1.95 to 3.9 (≈ 4.57 to 9.14 µM) | 3.9 (≈ 9.14 µM) | 31.3 (≈ 73.4 µM) | 1.95 to 3.9 (≈ 4.57 to 9.14 µM) | 1.59 to 3.9 | 7.8 (≈ 18.3 µM) | 15.6 (≈ 36.6 µM) | 15.6 (≈ 36.6 µM) | > 31.3 |  |  |  |  |  |  |
| Fc1ccc(N/N=C/c2ccc(-c3cccc(/C=N/Nc4ccc(F)cc4F)c3)cc2)c(F)c1 [Compound 20a] | 31.3 (≈ 67.7 µM) | 7.8 (≈ 16.9 µM) |  | 7.8 (≈ 16.9 µM) |  | 15.6 (≈ 33.7 µM) | 7.8 (≈ 16.9 µM) |  | 31.3 (≈ 67.7 µM) | 1.95 to 3.9 (≈ 4.22 to 8.43 µM) | 3.9 (≈ 8.43 µM) | 15.6 (≈ 33.7 µM) | 7.8 (≈ 16.9 µM) | 7.8 (≈ 16.9 µM) | 15.6 (≈ 33.7 µM) |  |  |  |  |  |  |
| COc1ccc(N/N=C/c2ccc(-c3ccc(/C=N/Nc4ccc(OC)cc4)cc3)cc2)cc1 [Compound 15b] | > 31.3 | > 31.3 |  | 7.8 to 15.6 (≈ 17.3 to 34.6 µM) | 7.8 (≈ 17.3 µM) | 7.8 to 15.6 (≈ 17.3 to 34.6 µM) | 7.8 to 15.6 (≈ 17.3 to 34.6 µM) | 7.8 (≈ 17.3 µM) | 7.8 to 15.6 (≈ 17.3 to 34.6 µM) | 7.8 to 15.6 (≈ 17.3 to 34.6 µM) | 7.8 (≈ 17.3 µM) | 3.9 (≈ 8.66 µM) | 7.8 to 15.6 (≈ 17.3 to 34.6 µM) | 3.9 (≈ 8.66 µM) | 7.8 to 15.6 (≈ 17.3 to 34.6 µM) | 7.8 (≈ 17.3 µM) | 3.9 (≈ 8.66 µM) | 15.6 (≈ 34.6 µM) | 3.9 (≈ 8.66 µM) | 7.8 (≈ 17.3 µM) | MIC [6]: 15.6 µg/mL (≈ 34.6 µM) |
| COc1ccc(N/N=C/c2ccc(-c3cccc(/C=N/Nc4ccc(OC)cc4)c3)cc2)cc1 [Compound 15a] | > 31.3 | > 31.3 |  | 31.3 (≈ 69.5 µM) |  | 1.95 to 3.9 (≈ 4.33 to 8.66 µM) |  |  | > 31.3 | 1.95 to 3.9 (≈ 4.33 to 8.66 µM) | 1.95 (≈ 4.33 µM) |  | 1.95 to 3.9 (≈ 4.33 to 8.66 µM) | 15.6 (≈ 34.6 µM) | 1.95 to 3.9 (≈ 4.33 to 8.66 µM) | 3.9 (≈ 8.66 µM) |  | 3.9 (≈ 8.66 µM) |  | 3.9 (≈ 8.66 µM) |  |
| Fc1cccc(N/N=C/c2ccc(-c3cccc(/C=N/Nc4cccc(F)c4)c3)cc2)c1 [Compound 12a] | > 31.3 | 1.95 to 3.9 (≈ 4.57 to 9.14 µM) | 3.9 (≈ 9.14 µM) | 7.8 to 15.6 (≈ 18.3 to 36.6 µM) | 7.8 (≈ 18.3 µM) | 7.8 to 15.6 (≈ 18.3 to 36.6 µM) | 7.8 to 15.6 (≈ 18.3 to 36.6 µM) | 7.8 (≈ 18.3 µM) | 31.3 (≈ 73.4 µM) | 1.95 to 3.9 (≈ 4.57 to 9.14 µM) | 1.95 (≈ 4.57 µM) | > 31.3 | 7.8 to 15.6 (≈ 18.3 to 36.6 µM) | > 31.3 | 7.8 to 15.6 (≈ 18.3 to 36.6 µM) | 7.8 (≈ 18.3 µM) |  | 15.6 (≈ 36.6 µM) |  | 15.6 (≈ 36.6 µM) |  |
| C/C(=N\Nc1ccc(F)cc1)c1ccc(-c2ccc(/C(C)=N/Nc3ccc(F)cc3)cc2)cc1 [Compound 17c, 4,4′-bis((E)-1-(2-(4-fluorophenyl)hydrazono)ethyl)-1,1′-biphenyl] | > 31.3 | > 31.3 |  | 7.8 (≈ 17.2 µM) |  | 1.95 to 3.9 (≈ 4.29 to 8.58 µM) | 7.8 (≈ 17.2 µM) |  | 15.6 (≈ 34.3 µM) | 1.95 to 3.9 (≈ 4.29 to 8.58 µM) | 1.95 (≈ 4.29 µM) | 1.95 to 3.9 (≈ 4.29 to 8.58 µM) | 7.8 (≈ 17.2 µM) | 1.95 to 3.9 (≈ 4.29 to 8.58 µM) | 7.8 (≈ 17.2 µM) | 3.9 (≈ 8.58 µM) | 1.95 (≈ 4.29 µM) |  | 3.9 (≈ 8.58 µM) |  |  |
| Fc1ccc(N/N=C/c2ccc(-c3ccc(/C=N/Nc4ccc(F)cc4)cc3)cc2)cc1 [Compound 17b] | > 31.3 | 7.8 to 15.6 (≈ 18.3 to 36.6 µM) | 7.8 (≈ 18.3 µM) | 7.8 to 15.6 (≈ 18.3 to 36.6 µM) | 7.8 (≈ 18.3 µM) | 7.8 to 15.6 (≈ 18.3 to 36.6 µM) | 7.8 to 15.6 (≈ 18.3 to 36.6 µM) | 7.8 (≈ 18.3 µM) | 31.3 (≈ 73.4 µM) | 7.8 to 15.6 (≈ 18.3 to 36.6 µM) | 7.8 (≈ 18.3 µM) | 7.8 to 15.6 (≈ 18.3 to 36.6 µM) | 7.8 to 15.6 (≈ 18.3 to 36.6 µM) | 7.8 to 15.6 (≈ 18.3 to 36.6 µM) | 31.3 (≈ 73.4 µM) | 7.8 (≈ 18.3 µM) | 15.6 (≈ 36.6 µM) | 7.8 (≈ 18.3 µM) | 15.6 (≈ 36.6 µM) |  |  |
